# Source: PubChem BioAssay (NCI)
#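 48-hour exposure; five concentrations; linearly interpolated endpoints. GI50 is the concentration that inhibits growth by half. TGI: concentration producing complete growth inhibition.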
# What was measured:
# Assay in all cases: NCI tumour cell line growth inhibition, 48 h
# [1] = system: NCI-H460 lung
# [2] = system: HL-60(TB) leukemia
# [3] = system: NCI-H226 lung
# [4] = system: OVCAR-4 ovarian
# [5] = system: CCRF-CEM leukemia
# [6] = system: SK-OV-3 ovarian
# [7] = system: HCT-15 colon
# [8] = system: M14 melanoma
# [9] = system: BT-549 breast
# [10] = system: MDA-MB-435
# [11] = system: HOP-62 NSCLC
# [12] = system: KM12 colon
# [13] = system: HCT-116 colon
# [14] = system: UACC-257 melanoma
# [15] = system: NCI-H522 lung
# [16] = system: HOP-92 NSCLC
# [17] = system: SNB-75 CNS
# [18] = system: COLO 205 colon
# [19] = system: PC-3 prostate
# [20] = system: HCC-2998 colon
# [21] = system: SF-295 CNS
# [22] = system: UACC-62 melanoma
# [23] = system: LOX IMVI melanoma
# [24] = system: 786-0 renal
# [25] = system: MDA-MB-231 breast
# [26] = system: MOLT-4 leukemia
# [27] = system: A498 renal
# [28] = system: SNB-19 CNS
# [29] = system: NCI/ADR-RES ovarian
# [30] = system: MCF7 breast
# [31] = system: SN12C renal
# [32] = system: SK-MEL-5 melanoma
# [33] = system: SK-MEL-2 melanoma
# [34] = system: U251 CNS
# [35] = system: SK-MEL-28 melanoma
# [36] = system: OVCAR-5 ovarian
# [37] = system: CAKI-1 renal
# [38] = system: SF-268 CNS
# [39] = system: RXF 393 renal
# [40] = system: K-562 leukemia
# [41] = system: RPMI-8226 leukemia
# [42] = system: HT29 colon
# [43] = system: SF-539 CNS
# [44] = system: SW-620 colon
# [45] = system: EKVX NSCLC
# [46] = system: ACHN renal
# [47] = system: HS 578T breast
# [48] = system: DU-145 prostate
# [49] = system: TK-10 renal
# [50] = system: NCI-H23 lung
# [51] = system: OVCAR-3 ovarian
# [52] = system: SR leukemia
# [53] = system: OVCAR-8 ovarian
# [54] = system: A549 NSCLC
# [55] = system: T-47D breast
smiles,measurement,setting,value
C(=C1c2ccccc2-c2ccccc21)c1ccncc1,GI50,[1],3.87 µM
same,TGI,[1],13.7 µM
same,GI50,[2],4.33 µM
same,TGI,[2],22.2 µM
same,GI50,[3],11.6 µM
same,TGI,[3],31.7 µM
same,GI50,[4],12.1 µM
same,TGI,[4],25.6 µM
same,GI50,[5],5.36 µM
same,TGI,[5],72.9 µM
same,GI50,[6],6.76 µM
same,TGI,[6],24.5 µM
same,GI50,[7],4.51 µM
same,TGI,[7],18.9 µM
same,GI50,[8],4.39 µM
same,TGI,[8],15.7 µM
same,GI50,[9],10 µM
same,TGI,[9],22.4 µM
same,GI50,[10],1.81 µM
same,TGI,[10],4.85 µM
same,GI50,[11],5.35 µM
same,TGI,[11],24.3 µM
same,GI50,[12],3.24 µM
same,TGI,[12],11.9 µM
same,GI50,[13],3.84 µM
same,TGI,[13],14.3 µM
same,GI50,[14],11.6 µM
same,TGI,[14],26.7 µM
same,GI50,[15],5.78 µM
same,TGI,[15],20.4 µM
same,GI50,[16],11.2 µM
same,TGI,[16],25.4 µM
same,GI50,[17],6.5 µM
same,TGI,[17],24.6 µM
same,GI50,[18],5.32 µM
same,TGI,[18],18.3 µM
same,GI50,[19],13.4 µM
same,TGI,[19],> 100 µM
same,GI50,[20],11.3 µM
same,TGI,[20],24.5 µM
same,GI50,[21],1.98 µM
same,TGI,[21],5.28 µM
same,GI50,[22],5.14 µM
same,TGI,[22],18.6 µM
same,GI50,[23],5.19 µM
same,TGI,[23],18.9 µM
same,GI50,[24],8.17 µM
same,TGI,[24],22.7 µM
same,GI50,[25],6.75 µM
same,TGI,[25],23.1 µM
same,GI50,[26],5.04 µM
same,TGI,[26],35 µM
same,GI50,[27],2.25 µM
same,TGI,[27],10.7 µM
same,GI50,[28],5.81 µM
same,TGI,[28],19.5 µM
same,GI50,[29],3.88 µM
same,TGI,[29],16.2 µM
same,GI50,[30],3.92 µM
same,TGI,[30],14.6 µM
same,GI50,[31],7.45 µM
same,TGI,[31],21.6 µM
same,GI50,[32],4.64 µM
same,TGI,[32],16.7 µM
same,GI50,[33],10.6 µM
same,TGI,[33],26.4 µM
same,GI50,[34],3.78 µM
same,TGI,[34],16 µM
same,GI50,[35],10.6 µM
same,TGI,[35],24.2 µM
same,GI50,[36],13.8 µM
same,TGI,[36],33.2 µM
same,GI50,[37],2.64 µM
same,TGI,[37],10.9 µM
same,GI50,[38],6.39 µM
same,TGI,[38],19.8 µM
same,GI50,[39],5.69 µM
same,TGI,[39],21.7 µM
same,GI50,[40],4.35 µM
same,TGI,[40],> 100 µM
same,GI50,[41],7.65 µM
same,TGI,[41],63.4 µM
same,GI50,[42],4.06 µM
same,TGI,[42],13.9 µM
same,GI50,[43],5.62 µM
same,TGI,[43],19.4 µM
same,GI50,[44],4.22 µM
same,TGI,[44],17.1 µM
same,GI50,[45],3.48 µM
same,TGI,[45],15.4 µM
same,GI50,[46],10.6 µM
same,TGI,[46],28 µM
same,GI50,[47],3.77 µM
same,TGI,[47],14.1 µM
same,GI50,[48],8.28 µM
same,TGI,[48],20.9 µM
same,GI50,[49],13 µM
same,TGI,[49],26.9 µM
same,GI50,[50],9.94 µM
same,TGI,[50],26.6 µM
same,GI50,[51],2.5 µM
same,TGI,[51],6.75 µM
same,GI50,[52],3.34 µM
same,TGI,[52],50.1 µM
same,GI50,[53],7.99 µM
same,TGI,[53],24.9 µM
same,GI50,[54],4.65 µM
same,TGI,[54],19.3 µM
same,GI50,[55],6.04 µM
same,TGI,[55],42.5 µM
